In US20240000769A1, “AMORPHOUS SOLID DISPERSIONS” (UCB Biopharma SRL, priority 2020, published 2024):
In brackets after ≈: the same amount, converted by molar mass. Read-outs that look alike come from different tables or passages of the source.

Experiments:
[1] = Dynamic dissolution profile, USP Apparatus 2, simulated gastric media then FaSSIF-V2; type: physicochemical; conditions: 37° C., 30 min 0.1N HCl (1 mg/mL) then 180 min FaSSIF-V2 (0.5 mg/mL)
Method: The dissolution profile was determined in a USP Apparatus 2 type (Distek 2100 C Dissolution Apparatus) at 37° C. The dynamic dissolution test includes first a 30 minutes dissolution in simulated gastric media (0.1N HCl) to achieve a concentration equivalent to a concentration of compound of formula (I) of 1 mg/mL, followed by a 180 minutes dissolution in FaSSIF-V2 to achieve a concentration equivalent to a concentration of compound of formula (I) of 0.5 mg/mL.
Then, 50 mL of simulated gastric media (0.1N HCl) was added to the vessel and the paddle speed was fixed at 100 rpm. After 30 minutes, an equivalent volume (50 mL) of fasted state biorelevant media was added to the vessel to obtain the composition of FaSSIF-V2. Dissolution was carried out in triplicate (n=3). At each timepoint, the suspension was filtered through a 0.45-μm ultra free filter (Merck Millipore) and the content of compound of formula (I) was determined by HPLC. The filtrate was then diluted with a suitable organic solvent.

[2] = Shake flask solubility (24 h) in buffer/biorelevant media; type: physicochemical; conditions: thermodynamic from solid, n=3, read-out: Solubility Measurements (24 h)
Method: The respective solubility of compounds of formula (Ia) and ASD1 was determined in different media while using the shake flask method. An excess of solid (equivalent to a concentration of compound of formula (I) of 5 mg/mL) was suspended in 5 mL of buffer/biorelevant media as specifically described in Table 4 and incubated in a sealed glass vial (10 mL) for 24 h at both RT and 37° C. in a climatic chamber equipped with a rotary mixer. The 24h time point was assumed to have reached solubility, at which time the suspension was filtered through a 0.45-μm ultra free filter (Merck Millipore) and the drug content was determined by HPLC. The solubility of compound (Ia) and ASD1 was determined in triplicate (n=3). Where required to prevent drug precipitation, the filtrate was diluted with a suitable organic solvent. […] These media are respectively a phosphate buffer, FasSGF, FASSIF-V2 and FeSSIF-V2. FasSG is fasted condition gastric fluid. FasSGF is prepared at pH 1.6 and contains 0.08 mM Taurocholate, 0.02 mM phospholipids, 34 mM sodium and 59 mM chloride. FaSSIF-V2 and FeSSIF-V2 are Fasted and Fed State Biorelevant Media, respectively. FaSSIF-V2 is prepared at pH 6.5 and contains 3 mM Taurocholate, 0.2 mM Phospholipids, 106 mM Sodium, 69 mM Chloride and 19 mM Maleic acid. FeSSIF-V2 is prepared at pH 5.8 and contains 10 mM Taurocholate, 2 mM Phospholipids, 0.8 mM Oleate, 5 mM Glycerol monoleate, 218 mM Sodium, 125 mM Chloride and 55 mM Maleic acid.

solubility at 24 h ([2]; aqueous buffer, Phosphate buffer (50 mM), pH 5.8, RT): < 1 µg/mL
solubility at 24 h ([2]; aqueous buffer, Phosphate buffer (50 mM), pH 6.5, RT): < 1 µg/mL
solubility at 24 h ([2]; fassgf or other biorelevant, FasSGF, pH 1.6, 37° C.): < 1 µg/mL
solubility at 24 h ([2]; FaSSIF-V2, pH 6.5, 37° C.): ~1.5 µg/mL (≈ 3.15 µM)
solubility at 24 h ([2]; FeSSIF-V2, pH 5.8, 37° C.): ~4 µg/mL (≈ 8.4 µM)
SMILES: C[C@H]1c2cccc(C(C)(C)O)c2C[C@H](CO)N1C(=O)Cc1c(Cl)ccc2c1c(Cl)nn2C [Compound (Ia), 2-(3,5-dichloro-1-methyl-indazol-4-yl)-1-[(1S,3R)-3-(hydroxymethyl)-5-(1-hydroxy-1-methyl-ethyl)-1-methyl-3,4-dihydro-1H-isoquinolin-2-yl]ethanone]
dissolution profile over time [1]: drops in gastric media to very low levels
